Experimental data as given in patent US8008007B2, “S-adenosyl-L-methionine analogs with extended activated groups for transfer by methyltransferases” (RWTH Aachen, priority 2005, dated 2011).

Assays:
M.TaqI [1] = target: T1, M.TaqI (Thermus aquaticus, UniProt P14385); experiment: DNA protection assay with M.TaqI (wild-type) on phage lambda DNA; type: biochemical; conditions: cofactor 300 μM, then R.TaqI
T1 construct: made in house
Source text: Transfer kinetics of the activated ethyl (—CH2CH3), propyl (—CH2CH2CH3), prop-2-enyl (—CH2CH═CH2), prop-2-ynyl (—CH2C≡CH), but-2-ynyl (—CH2C≡CCH3), pent-2-ynyl (—CH2C≡CCH2CH3) and benzyl group (—CH2C6H5) from cofactors 3-9 by the DNA adenine-N6 methyltransferase M.TaqI and its variant V21 G, the DNA cytosine-C5 methyltransferase M.HhaI and its variant Q82A, the DNA cytosine-N4 methyltransferase M.BcnIB and the DNA cytosine-C5 methyltransferase M.SssI variant Q142A to phage lambda DNA (48502 base pairs) were investigated using a DNA protection assay. This assay makes use of the fact that DNA methyltransferase-catalyzed modifications of nucleobases within the recognition sequences of restriction endonucleases can protect the DNA against fragmentation by these enzymes. […] Unmodified DNA containing 5′-TCGA-3′ recognition sequences is readily fragmentated by R.TaqI. After DNA modification by M.TaqI in the presence of a cofactor with an activated group Z—R modified 5′-TCGA^Z—R-3′ sequences are formed and, as a result, R.TaqI is unable to fragment the modified DNA. Occurrence of fragmentation is then analyzed by agarose gel electrophoresis.
By varying the amounts of DNA methyltransferase, this assay is used to investigate the enzymatic activities of the different DNA methyltransferases with cofactors 3-9 and compare them to the enzymatic activities with the natural cofactor 1. The minimal amount of DNA methyltransferase needed to fully protect 1 μg of phage lambda DNA against restriction endonuclease fragmentation under the given experimental conditions is defined as one enzyme unit (u).
Afterwards a solution (30 μL) containing R.TaqI restriction endonuclease (40 u, MBI Fermentas), bovine serum albumin (0.166 mg/mL) and buffer (16.6 mM Tris hydrochloride, 166 mM sodium chloride, 8.3 mM magnesium chloride, pH 8.0) was added to each dilution and incubation at 60-65° C. was continued for 15 min. Loading buffer (10 μL, 0.25% bromphenol blue, 30% glycerol) was added to each sample, and aliquots (12 μL) were analyzed for the degree of protection by agarose gel (1%) electrophoresis. Parallel control experiments were performed with phage lambda DNA in the absence of M.TaqI and in the presence of M.TaqI (200 ng).
Afterwards a solution (10 μL) containing R.TaqI restriction endonuclease (10 u, MBI Fermentas), bovine serum albumin (0.1 mg/mL) and buffer (33 mM Tris acetate, 66 mM potassium acetate, 10 mM magnesium acetate, pH 7.9) was added to each dilution and incubation was continued at 65° C. for 1 h. […] Parallel control experiments were performed with phage lambda DNA in the absence of M.TaqI and in the presence of M.TaqI (180 ng).

M.TaqI [2] = target: T1, M.TaqI; experiment: Modification of adenine-N6 in duplex oligodeoxynucleotide I.II by M.TaqI, nucleoside analysis by HPLC/ESI-MS; type: biochemical; conditions: 37° C. over night, near-stoichiometric enzyme
Source text: Transfer of the activated ethyl (CH2CH3), propyl (CH2CH2CH3), prop-2-enyl (CH2CHCH2), prop-2-ynyl group (CH2CCH), but-2-ynyl (CH2CCCH3), pent-2-ynyl (CH2CCCH2CH3) or benzyl group (CH2C6H5) from cofactors 3-9 by the DNA adenine-N6 methyltransferase M.TaqI, the DNA cytosine-C5 methyltransferase M.HhaI variant Q82A or the DNA cytosine-N4 methyltransferase M.BcnIB to DNA was first investigated using short duplex oligodeoxynucleotides as substrates. After enzymatic transfer the duplex oligodeoxynucleotides were enzymatically fragmented and the resulting modified nucleosides were analyzed by reversed-phase HPLC coupled with ESI-MS.
M.TaqI was denatured by heating to 95° C. for 10 min and removed by centrifugation ([…], 2 min). The modified duplex oligodeoxynucleotides I^Z—R-II were desalted by gel filtration (NAP-5 column, Amersham Biosciences, Freiburg, Germany), eluted with water (1 mL) and lyophilized.
The modified duplex oligodeoxynucleotides I^Z—R-II were dissolved in buffer (100 μL, 10 mM Tris hydrochloride, 10 mM magnesium chloride, 1 mM zinc acetate, pH 7.5) containing Nuclease PI (1500 u, Sigma, Taufkirchen, Germany) and calf intestine alkaline phosphatase (30 u, MBI Fermentas, St. Leon-Rot, Germany) and incubated at 37° C. for 4 h. Nucleosides were analyzed by reversed-phase HPLC (Symmetry-C18 5 μm, 100 Å, 250×4.6 mm, equipped with a Symmetry-C18 5 μm, 100 Å, 20×4.6 mm pre-column, Waters, Eschborn, Germany). Compounds were eluted with acetonitrile (5% for 7 min, followed by linear gradients to 6% in 15 min, to 35% in 8 min and to 70% in 2 min) in triethylammonium acetate buffer (10 mM, pH 7.0) at a flow of 1 mL/min and detected at 254 nm.
For HPLC-coupled ESI-MS measurements compounds were eluted with methanol (0% for 3 min, followed by a linear gradient to 100% in 22 min) in ammonium formate buffer (20 mM, pH 3.5). A post-column mobile phase modification (equal co-flow of 96% methanol, 4% formic acid) was used to enhance the detection efficiency of 2′-deoxyadenosine and its derivatives. Mass spectra were recorded in 200-370 m/z range.
The hemimethylated duplex oligodeoxynucleotide I.II (compare Scheme 5, Example 2A) was produced by mixing equal molar amounts of complementary single-stranded oligodeoxynucleotide I (5′-GCCGCTCGATGCCG-3′) (SEQ. ID NO. 1) and II (5′-CGGCATCGA^MeGCGGC-3′, A^Me=N6-methyl-2′-deoxyadenosine) (SEQ ID NO. 2) in water, heating at 85° C. for 5 min and slow cooling to room temperature. […] The solution was heated to 95° C. for 10 min, supplemented with Proteinase K and incubated at 55° C. for 2 h. Hydrolysis products were removed by gel filtration (G-25 column, Amersham Biosciences).
The obtained solution was treated with buffer ( 1/10 volume, 100 mM Tris hydrochlorid, 100 mM magnesium chloride, 10 mM zinc acetate, pH 7.5) containing Nuclease P1 (1.14 u, Sigma, Taufkirchen, Germany) and calf intestine alkaline phosphatase (18 u, MBI Fermentas), incubated at 42° C. for 4 h and passed through a Microcon YM-3 spin column (Amicon). Nucleosides were analyzed by reversed-phase HPLC (Discovery HS C18 75×2.1 mm, 3 μm, equipped with a Supelguard Discovery HS C18 20×2.1 mm, 5 μm, pre-column, Supelco, Germany) coupled with a mass spectrometric detector (HP 1100 series ESI-MS equipped with single quadruple). Compounds were eluted with methanol (0% for 3 min, followed by linear gradients to 20% in 15 min and to 80% in 2 min) in ammonium formate buffer (20 mM, pH 3.5) at a flow of 0.3 mL/min. For on-line mass spectrometric detection post-column mobile phase modification (equal co-flow of 96% methanol, 4% formic acid and 1 mM sodium hydroxide) was used to enhance the detection efficiency of 2′-deoxyadenosine, 2′-deoxycytidine and their derivatives. Mass spectra were recorded in 50-600 m/z range.

[3] = 1 μg phage lambda DNA, 60° C. for 4 h, 1 u = minimal enzyme amount fully protecting 1 μg DNA

T1 sequence (P14385 whole entry): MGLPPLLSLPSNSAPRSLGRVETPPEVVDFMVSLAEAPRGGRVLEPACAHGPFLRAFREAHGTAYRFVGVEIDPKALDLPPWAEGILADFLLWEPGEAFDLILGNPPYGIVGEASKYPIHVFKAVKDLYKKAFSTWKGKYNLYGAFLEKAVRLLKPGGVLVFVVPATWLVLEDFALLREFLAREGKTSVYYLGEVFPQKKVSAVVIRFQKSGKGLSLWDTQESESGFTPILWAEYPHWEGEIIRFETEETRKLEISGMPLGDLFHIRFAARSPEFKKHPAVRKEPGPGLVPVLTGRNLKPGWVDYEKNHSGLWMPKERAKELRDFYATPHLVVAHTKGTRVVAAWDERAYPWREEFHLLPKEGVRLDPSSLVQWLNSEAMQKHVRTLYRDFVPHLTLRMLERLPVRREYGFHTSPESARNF

| SMILES | specific activity of M.TaqI with the cofactor (M.TaqI [1]; [3]) [u/μg] | cofactor function for M.TaqI (transfer of group Z-R to adenine-N6) (M.TaqI [2]) | specific activity of M.TaqI with the cofactor (M.TaqI [1]; 1.03 μg phage lambda DNA, 60° C. for 1 h only (multiply by four to compare with 4 h values)) [u/μg] |
| --- | --- | --- | --- |
| CC#CC[S+](CCC(N)C(=O)O)CC1OC(n2cnc3c(N)ncnc32)C(O)C1O (mixture of isomers) [Cofactor 7] | 1280 | functions as a cofactor | – |
| CC[S+](CCC(N)C(=O)O)CC1OC(n2cnc3c(N)ncnc32)C(O)C1O (centres unmarked) [Cofactor 3] | 10 | functions as a cofactor | – |
| CCC[S+](CCC(N)C(=O)O)CC1OC(n2cnc3c(N)ncnc32)C(O)C1O (centres unmarked) [Cofactor 4] | < 5 | functions as a cofactor | – |
| C=CC[S+](CCC(N)C(=O)O)CC1OC(n2cnc3c(N)ncnc32)C(O)C1O (centres unmarked) [Cofactor 5] | 80 | functions as a cofactor | – |
| C#CC[S+](CCC(N)C(=O)O)CC1OC(n2cnc3c(N)ncnc32)C(O)C1O (centres unmarked) [Cofactor 6] | 10 | functions as a cofactor | – |
| CCC#CC[S+](CCC(N)C(=O)O)CC1OC(n2cnc3c(N)ncnc32)C(O)C1O (centres unmarked) [Cofactor 8] | 640 | functions as a cofactor | – |
| NCCCC(=O)NCC#CC[S+](CCC(N)C(=O)O)CC1OC(n2cnc3c(N)ncnc32)C(O)C1O (centres unmarked) [Cofactor 10] | – | functions as a cofactor | 11 |
